The values below come from ChEMBL document CHEMBL1132016, “Catalytic activity of carboxypeptidase B and of carboxypeptidase Y with anisylazoformyl substrates” (Bioorg Med Chem Lett, 1999).

Data set [1] concerns the target T1, Carboxypeptidase B (Sus scrofa) (UniProt P09955).
T1 sequence (whole entry): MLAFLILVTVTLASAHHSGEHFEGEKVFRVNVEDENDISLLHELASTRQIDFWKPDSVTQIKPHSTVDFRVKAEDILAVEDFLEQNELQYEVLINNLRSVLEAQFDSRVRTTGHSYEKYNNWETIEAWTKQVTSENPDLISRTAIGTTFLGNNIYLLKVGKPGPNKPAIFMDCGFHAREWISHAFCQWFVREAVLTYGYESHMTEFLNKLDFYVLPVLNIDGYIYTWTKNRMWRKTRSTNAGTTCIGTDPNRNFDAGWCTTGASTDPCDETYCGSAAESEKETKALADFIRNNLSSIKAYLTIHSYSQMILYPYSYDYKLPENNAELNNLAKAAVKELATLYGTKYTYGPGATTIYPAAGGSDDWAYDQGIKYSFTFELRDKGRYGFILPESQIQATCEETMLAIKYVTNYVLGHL
As to the kind of experiment: Substrate kinetic value (kcat) against porcine carboxypeptidase B.

The nature of data set [2]: Ratio of kinetic constants (kcat/km) for the inhibition against carboxypeptidase B.
Substrate in data set [3]: COc1ccc(/N=N/C(=O)NC(CCCCN)C(=O)O)cc1
As to the kind of experiment: (§1) Affinity to porcine carboxypeptidase B at pH 7.9.

Substrate in data set [4]: C[C@@H](NC(=O)/C=C/c1ccco1)C(=O)N[C@@H](CCCCN)C(=O)O
Described as §1.

In data set [1], `COc1ccc(/N=N/C(=O)NC(CCCCN)C(=O)O)cc1` (stereo not given) came in with a k cat of 76 s⁻¹. Besides, the Ratio in data set [2] is 95000 M⁻¹ s⁻¹.

Consider `C[C@@H](NC(=O)/C=C/c1ccco1)C(=O)N[C@@H](CCCCN)C(=O)O`, for which the Ratio in data set [2] came to 36000 M⁻¹ s⁻¹.

B1: Carboxypeptidase B (Sus scrofa), P09955 (protein)
chain: T1 sequence (whole entry)
In the case of B1, the Km in data set [3] was 810 µM; in data set [4], 1160 µM.
